Source: patent US10874743B2, “IRAK degraders and uses thereof” (Kymera Therapeutics, Inc., priority 2017, dated 2020)
Where “and” joins values, the source holds several entries; their conditions need not be identical. Identical values can stand only once. Like-named read-outs stand apart in the source and are kept apart here.

Test: Pharmacokinetics in CD-1 mice (plasma concentrations, PK parameters)
Assay type: in vivo
Conditions: for AUC(0-t): read-out: AUC0-last; for MRT inf: read-out: MRT0-inf; for MRT last: read-out: MRT0-last; for Vd: read-out: Vdss
Description: Pharmacokinetics for I-127, I-172 and I-210 were determined in Sprague Dawley rats or CD-1 mice by dosing intravenous (IV), subcutaneous (SC) or per oral (PO) using facility SOPs and sampling plasma at required time points. Species, formulation, route of administration and time points samples are listed below for each compound.
Compounds were extracted from plasma, injected on reverse phase HPLC, eluted with a gradient from 5% to 95% acetonitrile in water and quantified by mass spectrometry with internal standard. Data are expressed in ng compound per mL of plasma.

[1] = CD-1, mouse, plasma, iv, 2 mg/kg, mouse (CD1) iv 2 mg/kg, Mean IV
[2] = CD-1, mouse, plasma, sc, 30 mg/kg, mouse (CD1) sc 30 mg/kg, Mean SC
[3] = CD-1, mouse, plasma, sc, 30 mg/kg, mouse (CD1) sc 30 mg/kg, individual M07-M09
[4] = mouse (CD1) iv 2 mg/kg, Mean IV
[5] = mouse (CD1) iv 2 mg/kg, individual M01-M03, 2 mg/kg
[6] = mouse (CD1) sc 30 mg/kg, individual M07-M09
[7] = mouse (CD1) sc 30 mg/kg, individual M07-M09, 30 mg/kg

- concentration at 5 min (CD-1, mouse, plasma, iv, 2 mg/kg, mouse (CD1) iv 2 mg/kg, 5 min, Mean IV, read-out: concentrations): 1290 ng/mL
- concentration at 0.5 h (CD-1, mouse, plasma, iv, 2 mg/kg, mouse (CD1) iv 2 mg/kg, 0.500 h, Mean IV, read-out: concentrations): 102 ng/mL
- concentration at 1 h (CD-1, mouse, plasma, iv, 2 mg/kg, mouse (CD1) iv 2 mg/kg, 1.00 h, Mean IV, read-out: concentrations): 49.7 ng/mL
- concentration at 2 h (CD-1, mouse, plasma, iv, 2 mg/kg, mouse (CD1) iv 2 mg/kg, 2.00 h, Mean IV, read-out: concentrations): 31.7 ng/mL
- concentration at 4 h (CD-1, mouse, plasma, iv, 2 mg/kg, mouse (CD1) iv 2 mg/kg, 4.00 h, Mean IV, read-out: concentrations): 12.2 ng/mL
- concentration at 6 h (CD-1, mouse, plasma, iv, 2 mg/kg, mouse (CD1) iv 2 mg/kg, 6.00 h, Mean IV, read-out: concentrations): 5.31 ng/mL
- concentration at 24 h (CD-1, mouse, plasma, iv, 2 mg/kg, mouse (CD1) iv 2 mg/kg, 24.0 h, individual M01-M03, read-out: concentrations): 2.2 ng/mL
- clearance [1]: 84.9 mL/min/kg
- half-life [1]: 3.65 h
- AUC(0-inf) (CD-1, mouse, plasma, iv, 2 mg/kg, mouse (CD1) iv 2 mg/kg, Mean IV, read-out: AUC0-inf): 511 ng·h/mL
- AUC(0-t) [1]: 496 ng·h/mL
- C0 (CD-1, mouse, plasma, iv, 2 mg/kg, mouse (CD1) iv 2 mg/kg, Mean IV, read-out: C0): 2160 ng/mL
- MRT inf [1]: 1.54 h
- MRT last [1]: 1.1 h
- Vd [1]: 6.25 L/kg
- Vd (CD-1, mouse, plasma, iv, 2 mg/kg, mouse (CD1) iv 2 mg/kg, individual M01-M03): 5.73 L/kg
- AUC(0-t) [2]: 39.8 ng·h/mL
- Cmax (CD-1, mouse, plasma, sc, 30 mg/kg, mouse (CD1) sc 30 mg/kg, Mean SC, read-out: Cmax): 2.91 ng/mL
- MRT last [2]: 11.3 h
- Tmax (CD-1, mouse, plasma, sc, 30 mg/kg, mouse (CD1) sc 30 mg/kg, Mean SC, read-out: Tmax): 2.67 h
- half-life [3]: 39.2 h
- AUC(0-inf) (CD-1, mouse, plasma, sc, 30 mg/kg, mouse (CD1) sc 30 mg/kg, individual M07-M09, read-out: AUC0-inf): 144 ng·h/mL
- AUC(0-t) [3]: 33 ng·h/mL
- MRT inf [3]: 54.2 h
- MRT last [3]: 11.7 h
- Tmax (CD-1, mouse, plasma, sc, 30 mg/kg, mouse (CD1) sc 30 mg/kg, individual M07-M09, read-out: Tmax): 2 h
- bioavailability (CD-1, plasma, mouse (CD1) sc 30 mg/kg, Mean SC): 0.534%
- concentrations (mouse (CD1) iv 2 mg/kg, 5 min, individual M01-M03, 2 mg/kg): 2310 ng/mL and 831 ng/mL and 738 ng/mL
- concentrations (mouse (CD1) iv 2 mg/kg, 0.500 h, individual M01-M03, 2 mg/kg): 166 ng/mL and 58.7 ng/mL and 82.1 ng/mL
- concentrations (mouse (CD1) iv 2 mg/kg, 1.00 h, individual M01-M03, 2 mg/kg): 91 ng/mL and 22.3 ng/mL and 35.8 ng/mL
- concentrations (mouse (CD1) iv 2 mg/kg, 2.00 h, individual M01-M03, 2 mg/kg): 51.5 ng/mL and 12.7 ng/mL and 30.9 ng/mL
- concentrations (mouse (CD1) iv 2 mg/kg, 4.00 h, individual M01-M03, 2 mg/kg): 18.6 ng/mL and 7.08 ng/mL and 10.9 ng/mL
- concentrations (mouse (CD1) iv 2 mg/kg, 6.00 h, individual M01-M03, 2 mg/kg): 8.13 ng/mL and 3.38 ng/mL and 4.42 ng/mL
- concentrations (mouse (CD1) iv 2 mg/kg, 24.0 h, individual M01-M03, 2 mg/kg): BQL
- AUCExtra [4]: 2.97%
- AUMCExtra [4]: 29.9%
- AUCExtra [5]: 2.57% and 3.55% and 2.80%
- AUMCExtra [5]: 33.8% and 34.9% and 20.8%
- C0 [5]: 3910 ng/mL and 1412 ng/mL and 1145 ng/mL
- MRT0-inf [5]: 2.63 h and 0.916 h and 1.08 h
- MRT0-last [5]: 1.79 h and 0.618 h and 0.882 h
- T1/2 [5]: 7.43 h and 2.09 h and 1.43 h
- Tlast [5]: 24.0 h and 6.00 h (2×)
- Vdss [5]: 6.36 L/kg and 6.67 L/kg
- concentrations (mouse (CD1) po 30 mg/kg, 0.500 h, individual M04-M06): BQL
- concentrations (mouse (CD1) po 30 mg/kg, 1.00 h, individual M04-M06): BQL
- concentrations (mouse (CD1) po 30 mg/kg, 2.00 h, individual M04-M06): BQL
- concentrations (mouse (CD1) po 30 mg/kg, 4.00 h, individual M04-M06): BQL
- concentrations (mouse (CD1) po 30 mg/kg, 6.00 h, individual M04-M06): BQL
- concentrations (mouse (CD1) po 30 mg/kg, 24.0 h, individual M04-M06): BQL
- concentrations (mouse (CD1) sc 30 mg/kg, 0.500 h, Mean SC): 1.81 ng/mL
- concentrations (mouse (CD1) sc 30 mg/kg, 0.500 h, individual M07-M09, 30 mg/kg): 1.29 ng/mL and 2.28 ng/mL and 1.85 ng/mL
- concentrations (mouse (CD1) sc 30 mg/kg, 1.00 h, Mean SC): 2 ng/mL
- concentrations (mouse (CD1) sc 30 mg/kg, 1.00 h, individual M07-M09, 30 mg/kg): 1.87 ng/mL and 2.51 ng/mL and 1.61 ng/mL
- concentrations (mouse (CD1) sc 30 mg/kg, 2.00 h, Mean SC): 2.88 ng/mL
- concentrations (mouse (CD1) sc 30 mg/kg, 2.00 h, individual M07-M09, 30 mg/kg): 2.21 ng/mL and 4.61 ng/mL and 1.82 ng/mL
- concentrations (mouse (CD1) sc 30 mg/kg, 4.00 h, Mean SC): 1.59 ng/mL
- concentrations (mouse (CD1) sc 30 mg/kg, 4.00 h, individual M07-M09, 30 mg/kg): 1.01 ng/mL and 1.86 ng/mL and 1.9 ng/mL
- concentrations (mouse (CD1) sc 30 mg/kg, 6.00 h, Mean SC): 1.8 ng/mL
- concentrations (mouse (CD1) sc 30 mg/kg, 6.00 h, individual M07-M09, 30 mg/kg): 1.41 ng/mL and 2.82 ng/mL and 1.18 ng/mL
- concentrations (mouse (CD1) sc 30 mg/kg, 24.0 h, Mean SC): 1.38 ng/mL
- concentrations (mouse (CD1) sc 30 mg/kg, 24.0 h, individual M07-M09, 30 mg/kg): 1.3 ng/mL and 1.58 ng/mL and 1.26 ng/mL
- Tlast (mouse (CD1) sc 30 mg/kg, Mean SC): 24.0 h
- AUCExtra [6]: 62.1%
- AUMCExtra [6]: 92.4%
- Tlast [6]: 24.0 h
- AUC0-last [7]: 54.5 ng·h/mL and 31.7 ng·h/mL
- Cmax [7]: 2.21 ng/mL and 4.61 ng/mL and 1.90 ng/mL
- MRT0-last [7]: 10.9 h and 11.4 h
- Tmax [7]: 4.00 h
Compound: NC(=O)c1nn(-c2ccc(C(=O)NCCOCCOCCNc3cccc4c3C(=O)N(C3CCC(=O)NC3=O)C4=O)cc2)cc1NC(=O)c1coc(-c2ccnc(NCC(F)(F)F)c2)n1 (stereo not shown) [I-127, N-[3-carbamoyl-1-[4-[2-[2-[2-[[2-(2,6-dioxo-3-piperidyl)-1,3-dioxo-isoindolin-4-yl]amino]ethoxy]ethoxy]ethylcarbamoyl]phenyl]pyrazol-4-yl]-2-[2-(2,2,2-trifluoroethylamino)-4-pyridyl]oxazole-4-carboxamide]
- AUC0-last [5]: 896 ng·h/mL and 278 ng·h/mL and 316 ng·h/mL
- AUC(0-inf) [5]: 919 ng·h/mL and 288 ng·h/mL and 325 ng·h/mL
- Cl [5]: 36.3 mL/min/kg and 116 mL/min/kg and 103 mL/min/kg
